Experimental data reported in US9394331B2, “2′-spiro-nucleosides and derivatives thereof useful for treating hepatitis C virus and dengue virus infections” (priority 2010, dated 2016).
Like-named read-outs stand apart in the source and are kept apart here.

Experiments:
[1] = Cytotoxicity reported with the dengue assay; assay type: cell-based; conditions: Table 6; cell line not stated
[2] = system: Dengue 2 strain New Guinea C; assay: Dengue CPE assay; assay type: cell-based, Dengue virus 2; conditions: Table 6, BHK-21 cells, 3 days, 50% cells surviving, read-out: EC50, activity against dengue virus
Description: Dengue CPE Assay. To measure cytopathic effect of Dengue virus 2, BHK-21 ([…], CCL-10 ATCC Manassas, Va.) cells were seeded at a density of 20,000 cells/well in a 96-well black/clear bottom plates (Becton Dickinson, Franklin Lakes, N.J.) one day prior to start of the assay and allowed to attach overnight in EMEM (ATCC Manassas, Va.) +10% FBS (Invitrogen, Carlsbad, Calif.) at 37° C. in a humidified 5% CO2 atmosphere. The next day, the medium was removed and the cells were infected with Dengue 2 strain New Guinea C (VR-1584, ATCC Manassas, Va.) at an MOI of 0.08 pfu/cell for two hours in 50 μL EMEM+2% FBS. For both the single point and dose response assays, compounds (2× concentration) were diluted in EMEM+2% FBS and 50 μL was added to infected cells without removing virus. Cells were incubated for 3 days at 37° C. in a humidified 5% CO2 atmosphere. The medium was aspirated and 50 μL of CellTiter-Glo (Promega, Madison, Wis.) was added to each well and read for 0.1 seconds on a Perkin Elmer Victor3 (Waltham, Mass.) plate reader. Percent survival was determined by subtracting the average value of infected control wells and normalizing to the non-infected wells. The effective concentration was calculated from the dose response data by forecasting 50% cells surviving with drug treatment.

HCV replicon = HCV replicon assay (Clone A cells and ET-lunet cells, HCV RNA by real time PCR); assay type: cell-based, hepatitis C virus; conditions: for EC50: read-out: EC50, anti-HCV 1b activity; for EC90: read-out: EC90, anti-HCV 1b activity
Description: HCV replicon assay. HCV replicon assays using Clone A cells and ET-lunet cells were performed as described previously. L. J. Stuyver et al. Antimicrob. Agents Chemother. 2004, 48, 651-654. Briefly, Clone A cells and ET-lunet cells were seeded at a density of 1500 and 3000 cells per well in a 96-well plate, respectively. Test compounds serially diluted in culture medium without G418 were added to cells. Plates were incubated at 37° C. in a 5% CO2 atmosphere for 4 days. Inhibition of HCV RNA replication was determined by quantitative real time PCR. See, e.g., L. J. Stuyver et al. Antiviral Chem. Chemother. 2006, 17, 79-87.
To express the antiviral effectiveness of a compound, the threshold RT-PCR cycle of the test compound was subtracted from the average threshold RT-PCR cycle of the no-drug control (ΔCtHCV). A ΔCt of 3.3 equals a 1-log 10 reduction (equal to the 90% effective concentration [EC90]) in replicon RNA levels. The cytotoxicity of the test compound could also be expressed by calculating the ΔCtrRNA values. The ΔΔCt specificity parameter could then be introduced (ΔCtHCV-ΔCtrRNA), in which the levels of HCV RNA are normalized for the rRNA levels and calibrated against the no-drug control.

[3] = Cell cytotoxicity assay (MTS); assay type: cell-based; conditions: human
Description: (§1) Cell cytotoxicity assays. Each compound (serially diluted from 100 μM) was added to Huh7 (2×10^3 cells/well), HepG2 (2×10^3 cells/well), BxPC3 (2×10^3 cells/well), or CEM (5×10^3 cells/well) cells and allowed to incubate for 8 days at 37° C. A medium only control was used to determine the minimum absorbance value […]. At the end of the growth period, MTS dye from the CellTiter 96 Aqueous One Solution Cell Proliferation Assay kit (Promega) was added to each well and the plate was incubated for an additional 2 hours. The absorbance at 490 nm was read with a Victor3 plate reader (Perkin Elmer) using the medium only control wells as blanks. The 50% inhibition value (CC50) was determined by comparing the absorbance in wells containing cells and test compound to untreated cell control wells.

[4] = system: Huh7, HepG2, BxPC3, or CEM cells; assay: Cell cytotoxicity assay (MTS); assay type: cell-based; conditions: Table 3; cell line not stated
Description: as §1

[5] = biological target: wild type NS5B Genotype 1b (Hepatitis C virus genotype 1b (isolate Con1) (HCV), UniProt Q9WMX2); assay: HCV NS5B polymerase reaction, wild type; assay type: biochemical; conditions: Table 5, nucleoside triphosphates
Chain of wild type NS5B Genotype 1b (Q9WMX2 2420-3010): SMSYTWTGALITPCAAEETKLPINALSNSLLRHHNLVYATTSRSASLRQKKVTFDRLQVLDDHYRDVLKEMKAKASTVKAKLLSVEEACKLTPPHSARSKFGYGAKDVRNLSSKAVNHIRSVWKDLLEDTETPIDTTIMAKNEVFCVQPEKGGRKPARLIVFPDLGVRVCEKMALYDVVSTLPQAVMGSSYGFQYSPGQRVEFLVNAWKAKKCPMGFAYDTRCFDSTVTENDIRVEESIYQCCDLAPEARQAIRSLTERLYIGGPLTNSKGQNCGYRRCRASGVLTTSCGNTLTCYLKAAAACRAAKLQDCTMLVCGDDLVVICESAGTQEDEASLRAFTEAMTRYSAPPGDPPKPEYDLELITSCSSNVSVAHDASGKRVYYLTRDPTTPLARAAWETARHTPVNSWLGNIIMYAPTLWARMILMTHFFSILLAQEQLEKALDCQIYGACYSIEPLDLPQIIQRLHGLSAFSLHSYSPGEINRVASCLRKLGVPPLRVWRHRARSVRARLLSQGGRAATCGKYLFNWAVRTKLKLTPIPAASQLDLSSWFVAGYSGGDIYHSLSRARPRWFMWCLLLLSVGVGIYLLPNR

[6] = Hepatitis C virus, Table 2, HCV 1b replicon, unit inferred
[7] = Table 3, cell line not stated, read-out: CC50
[8] = Hepatitis C virus, Table 3, HCV 1b replicon
[9] = Hepatitis C virus, 96 h, Table 4, cyclic phosphates, diastereomeric mixtures

Row | SMILES | CC50 [1] [µM] | EC50 ([2]; Dengue virus, BHK-21, 72 h) [µM] | CC50 at 8 days [3, 7] [µM] | EC50 (HCV replicon; Table 3, HCV 1b replicon) [µM] | EC90 (HCV replicon; Table 3, HCV 1b replicon) [µM] | other results
1 | COC(=O)[C@H](C)NP(=O)(OC[C@H]1O[C@@H](n2cnc3c(OC)nc(N)nc32)[C@@]2(CCO2)[C@@H]1O)Oc1ccccc1 (stereo partly drawn) [compound 113, (2S)-methyl 2-(((((4R,5R,7R,8R)-5-(2-amino-6-methoxy-9H-purin-9-yl)-8-hydroxy-1,6-dioxaspiro[3.4]octan-7-yl)methoxy)(phenoxy)phosphoryl)amino)propanoate] | > 20 | 6.23 | – | – | – | EC50 (HCV replicon; [6]): 1.55 µM
2 | COC(=O)[C@H](C)NP(=O)(OC[C@H]1O[C@@H](n2ccc(=O)[nH]c2=O)[C@]2(CCCO2)[C@@H]1O)Oc1ccccc1 (stereo partly drawn) [compound 114, (2S)-methyl 2-(((((5S,6R,8R,9R)-6-(2,4-dioxo-3,4-dihydropyrimidin-1 (2H)-yl)-9-hydroxy-1,7-dioxaspiro[4.4]nonan-8-yl)methoxy)(phenoxy)phosphoryl)amino)propanoate] | – | – | – | – | – | EC50 (HCV replicon; [6]): 20.6 µM
3 | COC(=O)[C@H](C)NP(=O)(OC[C@H]1O[C@@H](n2ccc(=O)[nH]c2=O)[C@]2(CCO2)[C@@H]1O)Oc1ccccc1 (stereo partly drawn) [compound 115, (2S)-methyl 2-(((((4S,5R,7R,8R)-5-(2,4-dioxo-3,4-dihydropyrimidin-1 (2H)-yl)-8-hydroxy-1,6-dioxaspiro[3.4]octan-7-yl)methoxy)(phenoxy)phosphoryl)amino)propanoate] | – | – | – | – | – | EC50 (HCV replicon; [6]): 28.5 µM
4 | COC(=O)[C@H](C)NP(=O)(OC[C@H]1O[C@@H](n2ccc(=O)[nH]c2=O)[C@@]2(CCCO2)[C@@H]1O)Oc1ccccc1 (stereo partly drawn) [compound 116, (2S)-methyl 2-(((((5R,6R,8R,9R)-6-(2,4-dioxo-3,4-dihydropyrimidin-1 (2H)-yl)-9-hydroxy-1,7-dioxaspiro[4.4]nonan-8-yl)methoxy)(phenoxy)phosphoryl)amino)propanoate] | – | – | – | – | – | EC50 (HCV replicon; [6]): 28.3 µM
5 | COC(=O)[C@H](C)NP(=O)(OC[C@H]1O[C@@H](n2ccc(=O)[nH]c2=O)[C@@]2(CCO2)[C@@H]1O)Oc1ccccc1 (stereo partly drawn) [compound 117, (2S)-methyl 2-(((((4R,5R,7R,8R)-5-(2,4-dioxo-3,4-dihydropyrimidin-1 (2H)-yl)-8-hydroxy-1,6-dioxaspiro[3.4]octan-7-yl)methoxy)(phenoxy)phosphoryl)amino)propanoate] | – | – | – | – | – | EC50 (HCV replicon; [6]): 16.7 µM
6 | COc1nc(N)nc2c1ncn2C1OC(COP(=O)(N[C@@H](C)C(=O)OC(C)C)Oc2ccccc2)[C@@H](O)[C@]12CCO2 (stereo partly shown) [compound 118] | > 20 | – | > 20 | 1.49 | 3.44 | EC50 [2]: 5.06 µM
7 | COc1nc(N)nc2c1ncn2C1OC(COP(=O)(N[C@@H](C)C(=O)OC(C)C)Oc2ccccc2)[C@@H](O)[C@]12CCO2 (stereo partly shown) [compound 119] | > 20 | 8.64 | – | 4.52 | > 20 | CC50 [4]: > 20 µM
8 | COc1nc(N)nc2c1ncn2C1OC(COP(=O)(N[C@@H](C)C(=O)OCC(C)(C)C)Oc2ccccc2)[C@@H](O)[C@]12CCO2 (stereo partly shown) [compound 120] | > 20 | 1.88 | > 20 | 0.39 | 0.676 | –
9 | COc1nc(N)nc2c1ncn2C1OC(COP(=O)(N[C@@H](C)C(=O)OCC(C)(C)C)Oc2ccccc2)[C@@H](O)[C@]12CCO2 (stereo partly shown) [compound 121] | > 20 | – | – | 9.31 | 18.5 | CC50 [4]: > 20 µM; EC50 [2]: 2.26 µM
10 | CCOC(=O)[C@H](C)NP(=O)(OCC1OC(n2cnc3c(OC)nc(N)nc32)[C@@]2(CCO2)[C@@H]1O)Oc1ccccc1 (stereo partly shown) [compound 122] | > 20 | 5.84 | > 20 | – | – | EC50 (HCV replicon; [8]): 0.857 µM; EC90 (HCV replicon; [8]): 3 µM
11 | COc1nc(N)nc2c1ncn2C1OC(COP(=O)(N[C@@H](C)C(=O)OCC(C)(C)C)Oc2cccc3ccccc23)[C@@H](O)[C@]12CCO2 (stereo partly shown) [compound 123] | > 20 | 1.74 | > 20 | – | – | EC50 (HCV replicon; [8]): 0.31 µM; EC90 (HCV replicon; [8]): 0.853 µM
12 | COc1nc(N)nc2c1ncn2C1OC(COP(=O)(N[C@@H](C)C(=O)OCC(C)C)Oc2ccccc2)[C@@H](O)[C@]12CCO2 (stereo partly shown) [compound 124] | > 20 | 2.21 | > 20 | 0.566 | 1.81 | –
13 | COc1nc(N)nc2c1ncn2C1OC(COP(=O)(N[C@@H](C)C(=O)OCC(C)C)Oc2ccccc2)[C@@H](O)[C@]12CCO2 (stereo partly shown) [compound 125] | > 20 | – | – | 4.42 | 8.45 | CC50 [4]: > 20 µM; EC50 [2]: 1.98 µM
14 | CCCCOC(=O)[C@H](C)NP(=O)(OCC1OC(n2cnc3c(OC)nc(N)nc32)[C@@]2(CCO2)[C@@H]1O)Oc1ccccc1 (stereo partly shown) [compound 126] | > 20 | 2.36 | > 20 | 0.274 | 0.7 | –
15 | CCCCOC(=O)[C@H](C)NP(=O)(OCC1OC(n2cnc3c(OC)nc(N)nc32)[C@@]2(CCO2)[C@@H]1O)Oc1ccccc1 (stereo partly shown) [compound 127] | > 20 | – | – | 3.1 | 6.45 | CC50 [4]: > 20 µM; EC50 [2]: 1.61 µM
16 | COc1nc(N)nc2c1ncn2C1OC(COP(=O)(N[C@@H](C)C(=O)OC2CCCC2)Oc2ccccc2)[C@@H](O)[C@]12CCO2 (stereo partly shown) [compound 128] | > 20 | 2.79 | > 20 | – | – | EC50 (HCV replicon; [8]): 0.45 µM; EC90 (HCV replicon; [8]): 1.09 µM
17 | COc1nc(N)nc2c1ncn2C1OC(COP(=O)(N[C@@H](C)C(=O)OC2CCCC2)Oc2ccccc2)[C@@H](O)[C@]12CCO2 (stereo partly shown) [compound 129] | > 20 | – | – | 0.67 | 1.97 | CC50 [4]: > 20 µM; EC50 [2]: 2.36 µM
18 | COc1nc(N)nc2c1ncn2C1OC(COP(=O)(N[C@@H](C)C(=O)OCc2ccccc2)Oc2ccccc2)[C@@H](O)[C@]12CCO2 (stereo partly shown) [compound 130] | > 20 | – | > 20 | – | – | EC50 [2]: 3.84 µM; EC50 (HCV replicon; [8]): 8.65 µM; EC90 (HCV replicon; [8]): 15.1 µM
19 | COc1nc(N)nc2c1ncn2C1OC(COP(=O)(N[C@@H](C)C(=O)OCc2ccccc2)Oc2ccccc2)[C@@H](O)[C@]12CCO2 (stereo partly shown) [compound 131] | > 20 | – | – | 11.7 | > 20 | CC50 [4]: > 20 µM; EC50 [2]: 1.49 µM
20 | COc1nc(N)nc2c1ncn2C1OC2COP(=O)(OCC(C)(C)C)O[C@H]2[C@]12CCO2 (stereo partly shown) [compound 132] | – | – | – | – | – | CC50 at 8 days [3]: > 20 µM; EC50 (HCV replicon; [9]): > 20 µM; EC90 (HCV replicon; [9]): > 20 µM
21 | COc1nc(N)nc2c1ncn2C1OC2COP(=O)(OC(C)C)O[C@H]2[C@]12CCO2 (stereo partly shown) [compound 133] | – | – | – | – | – | CC50 at 8 days [3]: > 20 µM; EC50 (HCV replicon; [9]): > 20 µM; EC90 (HCV replicon; [9]): > 20 µM
22 | COc1nc(N)nc2c1ncn2C1OC2COP(=O)(OC3CCCC3)O[C@H]2[C@]12CCO2 (stereo partly shown) [compound 134] | – | – | – | – | – | CC50 at 8 days [3]: > 20 µM; EC90 (HCV replicon; [9]): > 20 µM; EC50 (HCV replicon; Hepatitis C virus, Table 4, cyclic phosphates, diastereomeric mixtures): 14 µM
23 | O=c1ccn(C2OC(CO)[C@@H](O)[C@@]23CCCO3)c(=O)[nH]1 (stereo partly shown) [compound 135] | – | – | – | – | – | IC50 [5]: > 100 µM
24 | Nc1ccn(C2OC(CO)[C@@H](O)[C@@]23CCCO3)c(=O)n1 (stereo partly shown) [compound 138] | – | – | – | – | – | IC50 [5]: > 100 µM
